From ChEMBL document CHEMBL1201862, “PubChem BioAssay data set” (2004)
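Dose response: 5 concentrations. Exposure: 48 h. Format: 96-well plates. Endpoint: linear interpolation; highest concentration if not reached. GI50 marks 50% less growth.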 Activity calls are given as the source filed them. No stated cut-off is given here; in the data, active = GI50 up to about 1.1 µM and inactive = higher.

Experiments:
Assay in all cases: growth of human tumour cells (NCI), 48 h
LOX IMVI = system: LOX IMVI
NCI-H23 = system: NCI-H23
U-251 = system: U-251
NCI-H226 = system: NCI-H226
HOP-92 = system: HOP-92
RPMI-8226 = system: RPMI-8226
MCF7 = system: MCF7
COLO 205 = system: COLO 205
CCRF-CEM = system: CCRF-CEM
NCI-H522 = system: NCI-H522
786-0 = system: 786-0
MOLT-4 = system: MOLT-4
HCT-15 = system: HCT-15
KM12 = system: KM12
IGROV-1 = system: IGROV-1
MDA-MB-231 = system: MDA-MB-231
Hs-578T = system: Hs-578T
HCT-116 = system: HCT-116
OVCAR-4 = system: OVCAR-4
HT-29 = system: HT-29
K562 = system: K562
SK-MEL-5 = system: SK-MEL-5
NCI/ADR-RES = system: NCI/ADR-RES
TK-10 = system: TK-10
OVCAR-8 = system: OVCAR-8
UO-31 = system: UO-31
M14 = system: M14
HOP-62 = system: HOP-62
OVCAR-5 = system: OVCAR-5
SF-295 = system: SF-295
SNB-19 = system: SNB-19
SK-OV-3 = system: SK-OV-3
HCC 2998 = system: HCC 2998
DU-145 = system: DU-145
A549 = system: A549
SR = system: SR
UACC-62 = system: UACC-62
SN12C = system: SN12C
MDA-N = system: MDA-N
OVCAR-3 = system: OVCAR-3
BT-549 = system: BT-549
Malme-3M = system: Malme-3M
SK-MEL-2 = system: SK-MEL-2
SF-268 = system: SF-268
ACHN = system: ACHN
CAKI-1 = system: CAKI-1
A498 = system: A498
PC-3 = system: PC-3
SW-620 = system: SW-620
T47D = system: T47D
SNB-75 = system: SNB-75
HL-60 = system: HL-60
MDA-MB-435 = system: MDA-MB-435
SF-539 = system: SF-539
NCI-H460 = system: NCI-H460
UACC-257 = system: UACC-257
SK-MEL-28 = system: SK-MEL-28
EKVX = system: EKVX

Measured: GI50

C/C(=N\NC(=S)N1CCCC1)c1nc2cccnc2[nH]1
inactive: NCI-H522 11.1 µM | MDA-MB-231 16.5 µM | Hs-578T 13.2 µM | HCC 2998 19.3 µM | SK-MEL-2 4.34 µM | SW-620 1.22 µM | SNB-75 3.85 µM
137 nM: HCT-15
active: LOX IMVI 178 nM | NCI-H23 679 nM | U-251 96.2 nM | NCI-H226 277 nM | HOP-92 681 nM | RPMI-8226 553 nM | MCF7 330 nM | COLO 205 378 nM | CCRF-CEM 63.8 nM | 786-0 177 nM | MOLT-4 171 nM | KM12 321 nM | IGROV-1 354 nM | HCT-116 163 nM | OVCAR-4 0.302 µM | HT-29 394 nM | K562 349 nM | SK-MEL-5 217 nM | NCI/ADR-RES 335 nM | TK-10 0.557 µM | OVCAR-8 304 nM | UO-31 63.4 nM | M14 357 nM | HOP-62 356 nM | OVCAR-5 457 nM | SF-295 254 nM | SNB-19 370 nM | SK-OV-3 442 nM | DU-145 175 nM | A549 223 nM | SR 202 nM | UACC-62 259 nM | SN12C 378 nM | MDA-N 979 nM | OVCAR-3 350 nM | BT-549 129 nM | Malme-3M 583 nM | SF-268 185 nM | ACHN 89.7 nM | CAKI-1 370 nM | A498 869 nM | PC-3 355 nM | T47D 0.432 µM | HL-60 162 nM | MDA-MB-435 416 nM | SF-539 86.3 nM | NCI-H460 61.2 nM | UACC-257 289 nM | SK-MEL-28 349 nM

COc1cc([C@@H]2c3cc4c(cc3[C@@H](Nc3ccc(Cl)cc3C(=O)c3ccccc3)[C@H]3COC(=O)[C@H]23)OCO4)cc(OC)c1OC
active: LOX IMVI 303 nM | NCI-H23 430 nM | U-251 241 nM | RPMI-8226 467 nM | MCF7 395 nM | COLO 205 416 nM | CCRF-CEM 370 nM | NCI-H522 0.211 µM | 786-0 394 nM | MOLT-4 384 nM | KM12 258 nM | IGROV-1 417 nM | MDA-MB-231 0.586 µM | Hs-578T 0.287 µM | HCT-116 291 nM | HT-29 307 nM | K562 358 nM | SK-MEL-5 298 nM | NCI/ADR-RES 425 nM | OVCAR-8 359 nM | M14 414 nM | HOP-62 640 nM | OVCAR-5 598 nM | SF-295 299 nM | SNB-19 408 nM | SK-OV-3 641 nM | HCC 2998 0.205 µM | DU-145 428 nM | A549 501 nM | SR 295 nM | UACC-62 401 nM | SN12C 518 nM | MDA-N 307 nM | OVCAR-3 324 nM | BT-549 457 nM | Malme-3M 396 nM | SF-268 558 nM | ACHN 592 nM | CAKI-1 601 nM | A498 195 nM | PC-3 342 nM | SW-620 0.369 µM | HL-60 297 nM | MDA-MB-435 242 nM | SF-539 274 nM | NCI-H460 277 nM | UACC-257 998 nM | SK-MEL-28 372 nM
inactive: EKVX > 100 µM | OVCAR-4 > 100 µM | TK-10 > 100 µM | UO-31 1190 nM | SK-MEL-2 2.34 µM | T47D > 100 µM
308 nM: HCT-15
